Measurements published in patent US9346809B2 (LEO PHARMA A/S, priority 2009, dated 2016).
Where two headings read alike, the source gives them in different places.

Columns and labels:
Type in all cases: biochemical
[1] = target: T1, JAK2 (catalytic domain, His-tag) (Homo sapiens, UniProt O60674); experiment: JAK kinase assay (HTRF, phosphorylation of TK substrate-biotin), JAK2; settings: ATP at Km (4 μM)
T1 construct: All four purified enzymes contain only the catalytic domain; His (N); purchased Carna Biosciences, Inc; host or cells: baculovirus expression system
T1 sequence (O60674 849-1124 limits assumed): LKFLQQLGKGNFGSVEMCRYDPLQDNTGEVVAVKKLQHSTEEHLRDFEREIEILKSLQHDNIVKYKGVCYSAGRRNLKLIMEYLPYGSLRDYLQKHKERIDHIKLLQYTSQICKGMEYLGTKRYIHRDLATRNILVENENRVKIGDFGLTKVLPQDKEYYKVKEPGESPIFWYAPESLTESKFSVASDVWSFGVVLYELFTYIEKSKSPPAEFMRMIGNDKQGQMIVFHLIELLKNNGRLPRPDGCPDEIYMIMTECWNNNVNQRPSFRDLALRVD
Procedure, shortened: (§1)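 Per reaction, 5 ng JAK1, 0.1 ng JAK2, 0.3 ng JAK3 or 0.8 ng TYK2 (baculovirus-expressed catalytic domains) acted on 1 μM TK substrate-biotin at Km ATP for 20-30 min, RT. Phosphorylation measured by HTRF.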

[2] = target: T2, TYK2 (aa 871-1187, catalytic domain, GST-tag) (Homo sapiens, UniProt P29597); experiment: JAK kinase assay (HTRF, phosphorylation of TK substrate-biotin), TYK2; settings: ATP at Km (13 μM)
T2 construct: JAK1 (aa 850-1154) and TYK2 (aa 871-1187) are expressed with an N-terminally fused GST-tag; GST (N); purchased Carna Biosciences, Inc; host or cells: baculovirus expression system
T2 sequence (P29597 871-1187): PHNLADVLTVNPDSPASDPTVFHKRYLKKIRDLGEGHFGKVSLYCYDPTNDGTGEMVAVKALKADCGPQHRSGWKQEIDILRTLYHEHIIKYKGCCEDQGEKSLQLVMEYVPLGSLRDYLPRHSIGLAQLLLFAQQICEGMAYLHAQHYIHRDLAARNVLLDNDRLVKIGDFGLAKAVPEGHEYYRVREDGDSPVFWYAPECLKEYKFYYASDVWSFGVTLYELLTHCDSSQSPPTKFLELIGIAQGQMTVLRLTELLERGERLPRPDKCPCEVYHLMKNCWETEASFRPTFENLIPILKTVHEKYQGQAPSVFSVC
Procedure, shortened: as §1

[3] = target: T3, JAK1 (aa 850-1154, catalytic domain, GST-tag) (Homo sapiens, UniProt P23458); experiment: JAK kinase assay (HTRF, phosphorylation of TK substrate-biotin), JAK1; settings: ATP at Km (7 μM)
T3 construct: JAK1 (aa 850-1154) and TYK2 (aa 871-1187) are expressed with an N-terminally fused GST-tag; GST (N); purchased Carna Biosciences, Inc; host or cells: baculovirus expression system
T3 sequence (P23458 850-1154): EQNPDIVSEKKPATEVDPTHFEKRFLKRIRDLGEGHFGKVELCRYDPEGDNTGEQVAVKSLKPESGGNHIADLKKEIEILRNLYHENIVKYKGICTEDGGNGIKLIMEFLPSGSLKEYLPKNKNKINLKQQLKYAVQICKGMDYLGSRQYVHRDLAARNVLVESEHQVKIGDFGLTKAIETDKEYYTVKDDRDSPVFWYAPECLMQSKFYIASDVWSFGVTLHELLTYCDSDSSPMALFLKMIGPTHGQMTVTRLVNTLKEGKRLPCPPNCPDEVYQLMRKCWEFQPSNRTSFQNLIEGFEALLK
Procedure, shortened: as §1

[4] = target: T4, JAK3 (catalytic domain, His-tag) (Homo sapiens, UniProt P52333); experiment: JAK kinase assay (HTRF, phosphorylation of TK substrate-biotin), JAK3; settings: ATP at Km (2 μM)
T4 construct: All four purified enzymes contain only the catalytic domain; His (N); purchased Carna Biosciences, Inc; host or cells: baculovirus expression system
T4 sequence (P52333 822-1111 limits assumed): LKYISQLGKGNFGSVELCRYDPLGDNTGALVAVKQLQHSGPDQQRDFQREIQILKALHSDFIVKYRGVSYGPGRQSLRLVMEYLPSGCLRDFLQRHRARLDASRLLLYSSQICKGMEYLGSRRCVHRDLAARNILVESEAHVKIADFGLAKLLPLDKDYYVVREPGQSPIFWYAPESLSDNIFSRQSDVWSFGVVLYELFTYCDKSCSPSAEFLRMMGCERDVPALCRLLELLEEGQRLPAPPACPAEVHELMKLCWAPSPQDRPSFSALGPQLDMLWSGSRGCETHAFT
Procedure, shortened: as §1

[5] = HTRF assay, read-out: JAK2 kinase inhibitory activity (EC50 indicator)
[6] = HTRF assay, read-out: TYK2 kinase inhibitory activity (EC50 indicator)
[7] = HTRF assay, read-out: JAK1 kinase inhibitory activity (EC50 indicator)
[8] = HTRF assay, read-out: JAK3 kinase inhibitory activity (EC50 indicator)
[9] = read-out: JAK2 kinase inhibitory activity (EC50 indicator)
[10] = read-out: TYK2 kinase inhibitory activity (EC50 indicator)
[11] = read-out: JAK1 kinase inhibitory activity (EC50 indicator)
[12] = read-out: JAK3 kinase inhibitory activity (EC50 indicator)

SMILES: NS(=O)(=O)c1ccc(NC(=O)C(=O)N2CCN(c3ncnc4[nH]ccc34)CC23CC3)cc1 [Example 401, 2-Oxo-2-[7-(7H-pyrrolo[2,3-d]pyrimidin-4-yl)-4,7-diaza-spiro[2.5]oct-4-yl]-N-(4-sulfamoyl-phenyl)-acetamide]
- EC50 [1, 5]: < 100 nM
- EC50 [2, 6]: < 100 nM
- EC50 [3, 7]: < 100 nM
- EC50 [4, 8]: < 100 nM

SMILES: O=C(OC1CCCC1)N1CCN(c2ncnc3[nH]ccc23)CC12CC2 [Example 450, 7-(7H-Pyrrolo[2,3-d]pyrimidin-4-yl)-4,7-diaza-spiro[2.5]octane-4-carboxylic acid cyclopentyl ester]
- EC50 ([1]; HTRF assay, read-out: JAK2 kinase inhibitory activity (EC50)): < 100 nM
- EC50 ([2]; HTRF assay, read-out: TYK2 kinase inhibitory activity (EC50)): < 100 nM
- EC50 ([3]; HTRF assay, read-out: JAK1 kinase inhibitory activity (EC50)): < 100 nM
- EC50 ([4]; HTRF assay, read-out: JAK3 kinase inhibitory activity (EC50)): < 100 nM

SMILES: CC(C)(C)OC(=O)NCCNS(=O)(=O)c1ccc(C(=O)N2CCN(c3ncnc4[nH]ccc34)CC23CC3)cc1 [Example 428, (2-{4-[7-(7H-Pyrrolo[2,3-d]pyrimidin-4-yl)-4,7-diaza-spiro[2.5]octane-4-carbonyl]-benzenesulfonylamino}-ethyl)-carbamic acid tert-butyl ester]
- EC50 [1, 5]: < 100 nM
- EC50 [2, 6]: 100 to 500 nM
- EC50 [3, 7]: < 100 nM
- EC50 [4, 8]: < 100 nM

SMILES: O=C(c1ccccn1)N1CCN(c2ncnc3[nH]ccc23)CC12CC2 [Example 2, Pyridin-2-yl-[7-(7H-pyrrolo[2,3-d]pyrimidin-4-yl)-4,7-diazaspiro[2.5]oct-4-yl]methanone]
- EC50 [1, 9]: < 100 nM
- EC50 [2, 10]: 100 to 500 nM
- EC50 [3, 11]: < 100 nM
- EC50 [4, 12]: 100 to 500 nM

SMILES: NS(=O)(=O)c1cccc(CC(=O)N2CCN(c3ncnc4[nH]ccc34)CC23CC3)c1 [Example 398, 3-{2-Oxo-2-[7-(7H-pyrrolo[2,3-d]pyrimidin-4-yl)-4,7-diaza-spiro[2.5]oct-4-yl]-ethyl}-benzenesulfonamide]
- EC50 [1, 5]: < 100 nM
- EC50 [2, 6]: > 500 nM
- EC50 [3, 7]: < 100 nM
- EC50 [4, 8]: < 100 nM

SMILES: COCCNS(=O)(=O)c1ccc(C(=O)N2CCN(c3ncnc4[nH]ccc34)CC23CC3)cc1 [Example 396, N-(2-Methoxy-ethyl)-4-[7-(7H-pyrrolo[2,3-d]pyrimidin-4-yl)-4,7-diaza-spiro[2.5]octane-4-carbonyl]-benzenesulfonamide]
- EC50 [1, 5]: < 100 nM
- EC50 [2, 6]: 100 to 500 nM
- EC50 [3, 7]: < 100 nM
- EC50 [4, 8]: < 100 nM

SMILES: N#Cc1ccc(C(=O)N2CCN(c3ncnc4[nH]ccc34)CC23CC3)cc1F [Example 219, 2-Fluoro-4-[7-(7H-pyrrolo[2,3-d]pyrimidin-4-yl)-4,7-diaza-spiro[2.5]octane-4-carbonyl]-benzonitrile]
- EC50 [1, 5]: < 100 nM
- EC50 [2, 6]: 100 to 500 nM
- EC50 [3, 7]: < 100 nM
- EC50 [4, 8]: 100 to 500 nM

SMILES: NS(=O)(=O)c1ccc(-c2ccc(C(=O)N3CCN(c4ncnc5[nH]ccc45)CC34CC4)o2)cc1 [Example 400, 4-{5-[7-(7H-Pyrrolo[2,3-d]pyrimidin-4-yl)-4,7-diaza-spiro[2.5]octane-4-carbonyl]-furan-2-yl}-benzenesulfonamide]
- EC50 [1, 5]: < 100 nM
- EC50 [2, 6]: 100 to 500 nM
- EC50 [3, 7]: < 100 nM
- EC50 [4, 8]: 100 to 500 nM

SMILES: O=C(c1ccc2c(c1)CCCC2)N1CCN(c2ncnc3[nH]ccc23)CC12CC2 [Example 218, [7-(7H-Pyrrolo[2,3-d]pyrimidin-4-yl)-4,7-diaza-spiro[2.5]oct-4-yl]-(5,6,7,8-tetrahydro-naphthalen-2-yl)-methanone]
- EC50 [1, 5]: < 100 nM
- EC50 [2, 6]: > 500 nM
- EC50 [3, 7]: < 100 nM
- EC50 [4, 8]: > 500 nM

SMILES: NS(=O)(=O)c1csc(C(=O)N2CCN(c3ncnc4[nH]ccc34)CC23CC3)c1 [Example 372, 5-[7-(7H-Pyrrolo[2,3-d]pyrimidin-4-yl)-4,7-diaza-spiro[2.5]octane-4-carbonyl]-thiophene-3-sulfonic acid amide]
- EC50 [1, 5]: < 100 nM
- EC50 [2, 6]: < 100 nM
- EC50 [3, 7]: < 100 nM
- EC50 [4, 8]: < 100 nM

SMILES: N#Cc1cccc(C(=O)N2[C@@H]3CC[C@@H]2CN(c2ncnc4[nH]ccc24)C3)c1 [Example 173, 3-[3-(7H-Pyrrolo[2,3-d]pyrimidin-4-yl)-3,8-diaza-bicyclo[3.2.1]octane-8-carbonyl]-benzonitrile]
- EC50 [1, 9]: < 100 nM
- EC50 [2, 10]: 100 to 500 nM
- EC50 [3, 11]: < 100 nM
- EC50 [4, 12]: < 100 nM

SMILES: N#Cc1ccc2c(C(=O)N3CCN(c4ncnc5[nH]ccc45)CC34CC4)n[nH]c2c1 [Example 301, 3-[7-(7H-Pyrrolo[2,3-d]pyrimidin-4-yl)-4,7-diaza-spiro[2.5]octane-4-carbonyl]-1H-indazole-6-carbonitrile]
- EC50 [1, 5]: < 100 nM
- EC50 [2, 6]: 100 to 500 nM
- EC50 [3, 7]: < 100 nM
- EC50 [4, 8]: < 100 nM

SMILES: N#CCOc1cccc(CC(=O)N2CCN(c3ncnc4[nH]ccc34)CC23CC3)c1 [Example 70, (3-{2-Oxo-2-[7-(7H-pyrrolo[2,3-d]pyrimidin-4-yl)-4,7-diaza-spiro[2.5]oct-4-yl]-ethyl}-phenoxy)-acetonitrile]
- EC50 [1, 9]: 100 to 500 nM
- EC50 [2, 10]: > 500 nM
- EC50 [3, 11]: 100 to 500 nM
- EC50 [4, 12]: 100 to 500 nM

SMILES: O=C(CC1CCCC1)N1[C@@H]2CC[C@H]1CN(c1ncnc3[nH]ccc13)C2 [Example 38, 2-Cyclopentyl-1-[3-(7H-pyrrolo[2,3-d]pyrimidin-4-yl)-3,8-diazabicyclo[3.2.1]oct-8-yl]ethanone]
- EC50 [1, 9]: < 100 nM
- EC50 [2, 10]: > 500 nM
- EC50 [3, 11]: < 100 nM
- EC50 [4, 12]: 100 to 500 nM

SMILES: N#CCOc1ccc(C(=O)N2CCN(c3ncnc4[nH]ccc34)CC23CC3)cc1 [Example 68, {4-[7-(7H-Pyrrolo[2,3-d]pyrimidin-4-yl)-4,7-diaza-spiro[2.5]octane-4-carbonyl]-phenoxy}-acetonitrile]
- EC50 [1, 9]: < 100 nM
- EC50 [2, 10]: 100 to 500 nM
- EC50 [3, 11]: < 100 nM
- EC50 [4, 12]: 100 to 500 nM

SMILES: N#Cc1ccc(C(=O)N2[C@@H]3CC[C@@H]2CN(c2ncnc4[nH]ccc24)C3)cc1F [Example 350, 2-Fluoro-4-[3-(7H-pyrrolo[2,3-d]pyrimidin-4-yl)-3,8-diaza-bicyclo[3.2.1]octane-8-carbonyl]-benzonitrile]
- EC50 [1, 5]: < 100 nM
- EC50 [2, 6]: 100 to 500 nM
- EC50 [3, 7]: < 100 nM
- EC50 [4, 8]: < 100 nM

SMILES: CC(C)CNS(=O)(=O)c1csc(C(=O)N2CCN(c3ncnc4[nH]ccc34)CC23CC3)c1 [Example 423, 5-[7-(7H-Pyrrolo[2,3-d]pyrimidin-4-yl)-4,7-diaza-spiro[2.5]octane-4-carbonyl]-thiophene-3-sulfonic acid isobutyl-amide]
- EC50 [1, 5]: < 100 nM
- EC50 [2, 6]: > 500 nM
- EC50 [3, 7]: < 100 nM
- EC50 [4, 8]: 100 to 500 nM

SMILES: COc1cnc2[nH]ccc2c1N1CCN(C(=O)c2ccc(C#N)cc2)C2(CC2)C1 [Example 286, 4-[7-(5-Methoxy-1H-pyrrolo[2,3-b]pyridin-4-yl)-4,7-diaza-spiro[2.5]octane-4-carbonyl]-benzonitrile]
- EC50 [1, 5]: > 500 nM
- EC50 [2, 6]: > 500 nM
- EC50 [3, 7]: > 500 nM
- EC50 [4, 8]: > 500 nM

SMILES: O=C(c1cnc2ccccc2n1)N1[C@@H]2CC[C@H]1CN(c1ncnc3[nH]ccc13)C2 [Example 345, [3-(7H-Pyrrolo[2,3-d]pyrimidin-4-yl)-3,8-diaza-bicyclo[3.2.1]oct-8-yl]-quinoxalin-2-yl-methanone]
- EC50 [1, 5]: < 100 nM
- EC50 [2, 6]: > 500 nM
- EC50 [3, 7]: < 100 nM
- EC50 [4, 8]: 100 to 500 nM

SMILES: N#CCOc1cccc(C(=O)N2CCN(c3ncnc4[nH]ccc34)CC23CC3)c1 [Example 67, {3-[7-(7H-Pyrrolo[2,3-d]pyrimidin-4-yl)-4,7-diaza-spiro[2.5]octane-4-carbonyl]-phenoxy}-acetonitrile]
- EC50 [1, 9]: < 100 nM
- EC50 [2, 10]: 100 to 500 nM
- EC50 [3, 11]: < 100 nM
- EC50 [4, 12]: 100 to 500 nM
